Results: EP4623928A1, “GLP-1R ANTAGONISTS FOR THE TREATMENT OF CANCER” (Fiorina, Paolo, priority 2024, dated 2025)

Experiments:
CD4^+ and CD8^+ T cells = experiment: Cell death and proliferation of CD4+ and CD8+ T cells in splenocytes activated with anti-CD3/anti-CD28 (FACS); type: cell-based, C57BL/6 mice; conditions: anti-CD3/anti-CD28 activated splenocytes
[1] = system: naive CD4^+CD25^- T cells; experiment: Treg induction assay; type: cell-based; conditions: Exe-4 (1nM), 5 days
Method: Naive CD4^+ CD25^- T cells were selected and activated for 5 days with 1 µg/ml of plate-bound […] anti-CD3 and anti-CD28 antibodies (BD Biosciences). Cells were cultured for 5-days in the presence of IL-2 (10ng/ml; R&D Systems) and TGFβ (2ng/mL; R&D Systems), anti-IL-4 (0.5µg/ml; PeproTech) and anti-IFNγ (2µg/mL; PeproTech) and were treated with Exe-4 (1nM) or left untreated. Then, cells were washed, pulsed for 4-hrs with phorbol myristate acetate (PMA; 50ng/mL; Sigma-Aldrich), ionomycin (500ng/mL; Sigma-Aldrich) and Golgi-stop (1.0µl/mL; BD Biosciences) and then analyzed by FACSCelesta (BD Biosciences) for the expression of Foxp3, Tbet and RoryT as previously reported (38).

[2] = system: untransduced-mock and pmY-GLP-1R transduced CD3^+ T cells; experiment: Seahorse bioenergetic analysis, mock and pmY-GLP-1R transduced CD3+ T cells; type: cell-based, murine; conditions: pmY-GLP-1R transduced vs untransduced-mock CD3^+ T cells, Exe-4 (1 nM)
Method: Cellular Bioenergetics were analyzed using the Seahorse Extracellular Flux Analyzer Xfe96 (Agilent Technologies, Santa Clara, CA, United States), which simultaneously measures Oxygen Consumption Rate (OCR, pmolO2/min), ExtraCellular Acidification Rate (ECAR, mpH/min) and Proton Efflux Rate (PER, pmolH^+/min). For Seahorse experiments 150.000 cells either freshly isolated GLP-1R^pos or GLP-1R^neg CD3^+ T cells or activated with soluble anti-CD3/CD28 at 0.5 µg/ml each in the presence or not of Exe-4 (1 nM); in another setting untransduced mock CD3^+ T cells or pmY-GLP-1R CD3^+ T cells already activated with soluble anti-CD3/CD28 at 0.5 µg/ml each in the presence or not of Exe-4 (1 nM). Cells were resuspended in 50 µL assay medium (Agilent #103576-100 RPMI Medium pH7.4, supplemented with 10mM glucose, 2mM glutamine and 1mM Na-pyruvate) were seeded in each CellTak-precoated well of an Agilent Xfe96 Pro well plate. The cell plate was centrifuged 2 times at 40 × g (zero braking) for 1 minute. After centrifugation, 150 µL warm assay medium was gently added to each well. […]
Seahorse parameters were normalized to cell number in each well. To this purpose, at the end of the Seahorse analysis, cell nuclei were stained with Hoechst 33342 (1 µg/mL) for about 15 min, imaged and counted with Operetta CLS™ software Harmony, as previously described (43). […]

Cardiac allografts = experiment: Murine cardiac allotransplantation (BALB/c hearts into C57BL/6 mice); type: in vivo
Method: Cardiac allografts from BALB/c mice were transplanted intra-abdominally in C57BL/6 mice using microsurgical techniques as described (31). Rejection was determined as complete cessation of cardiac contractility and was confirmed by direct visualization. Transplanted mice were intraperitoneally injected according to the following protocols: 1) Exendin-4 (Exe-4) (Amylin Pharmaceuticals, San Diego, CA - USA) 0.2pg twice/day for two weeks after transplant; 2) Exe-4 0.2pg twice/day from the day before until two weeks after transplant; 3) Exe-4 2µg twice/day from the day before until two weeks after transplant; 4) Exe-4 2µg twice/day + Exendin-9-39 (Exe-9) (Sigma-Aldrich) 2µg twice/day from the day before until two weeks after transplant; 5) Exe-4 2µg twice/day from the day before until two weeks after transplant + Rapamycin 0.1mg/die for two weeks; 6) saline 0.5ml twice/day for two weeks.

Substance: Exendin-4 [Exe-4]
- cell death of CD4^+ and CD8^+ T cells (CD4^+ and CD8^+ T cells; Exe-4 alone (1 nM)): significant increase
- proliferation of CD4^+ and CD8^+ T cells (CD4^+ and CD8^+ T cells; Exe-4 alone): no effect
- Ror-yT on iTregs (iTreg stability) [1]: significant reduction
- Tbet on iTregs (iTreg stability) [1]: significant reduction
- Treg induction (percentage of FoxP3^+CD4^+CD25^+ Tregs) [1]: no substantial differences
- ATP production from mitochondrial respiration [2]: significantly increased
- OCR values [2]: significantly increased
- graft infiltration (Hematoxylin and eosin staining) (Cardiac allografts; day-7 heart allograft, Exe-4-treated mice): decrease of graft infiltration
- [MST] (cardiac allograft survival) (Cardiac allografts; first of three Exe-4 regimens listed 'respectively' (low or high dose, preceded or not with pre-treatment), untreated [MST]=7 days, p<0.01): 9 days
- [MST] (cardiac allograft survival) (Cardiac allografts; second of three Exe-4 regimens listed 'respectively', p<0.01 vs untreated): 10 days
- CD4^+ and CD8^+ effector T cells (Cardiac allografts; splenic, Exe-4-treated mice): significant decrease
- Tregs (Cardiac allografts; splenic, Exe-4-treated mice): no effect
- [MST] (cardiac allograft survival) (Cardiac allografts; third of three Exe-4 regimens listed 'respectively', p<0.01 vs untreated): 10 days
